From patent US10968225B2, “Compounds and compositions for the treatment of cystic fibrosis” (Fondazione Istituto Italiano Di Tecnologia, priority 2017, dated 2021)

What follows are compounds tested against T1, mutant CFTR (Homo sapiens, UniProt P13569, DEL508-508) (assay: Fluorescence (HS-YFP) assay for CFTR activity, corrector assay). Details: CFBE41o- and FRT cells with stable expression of mutant CFTR, read-out: activity (EC50).
T1 construct: expressed in transfected cells
Assay type: cell-based

T1 sequence (P13569 with tags, fused parts or gaps DEL508-508): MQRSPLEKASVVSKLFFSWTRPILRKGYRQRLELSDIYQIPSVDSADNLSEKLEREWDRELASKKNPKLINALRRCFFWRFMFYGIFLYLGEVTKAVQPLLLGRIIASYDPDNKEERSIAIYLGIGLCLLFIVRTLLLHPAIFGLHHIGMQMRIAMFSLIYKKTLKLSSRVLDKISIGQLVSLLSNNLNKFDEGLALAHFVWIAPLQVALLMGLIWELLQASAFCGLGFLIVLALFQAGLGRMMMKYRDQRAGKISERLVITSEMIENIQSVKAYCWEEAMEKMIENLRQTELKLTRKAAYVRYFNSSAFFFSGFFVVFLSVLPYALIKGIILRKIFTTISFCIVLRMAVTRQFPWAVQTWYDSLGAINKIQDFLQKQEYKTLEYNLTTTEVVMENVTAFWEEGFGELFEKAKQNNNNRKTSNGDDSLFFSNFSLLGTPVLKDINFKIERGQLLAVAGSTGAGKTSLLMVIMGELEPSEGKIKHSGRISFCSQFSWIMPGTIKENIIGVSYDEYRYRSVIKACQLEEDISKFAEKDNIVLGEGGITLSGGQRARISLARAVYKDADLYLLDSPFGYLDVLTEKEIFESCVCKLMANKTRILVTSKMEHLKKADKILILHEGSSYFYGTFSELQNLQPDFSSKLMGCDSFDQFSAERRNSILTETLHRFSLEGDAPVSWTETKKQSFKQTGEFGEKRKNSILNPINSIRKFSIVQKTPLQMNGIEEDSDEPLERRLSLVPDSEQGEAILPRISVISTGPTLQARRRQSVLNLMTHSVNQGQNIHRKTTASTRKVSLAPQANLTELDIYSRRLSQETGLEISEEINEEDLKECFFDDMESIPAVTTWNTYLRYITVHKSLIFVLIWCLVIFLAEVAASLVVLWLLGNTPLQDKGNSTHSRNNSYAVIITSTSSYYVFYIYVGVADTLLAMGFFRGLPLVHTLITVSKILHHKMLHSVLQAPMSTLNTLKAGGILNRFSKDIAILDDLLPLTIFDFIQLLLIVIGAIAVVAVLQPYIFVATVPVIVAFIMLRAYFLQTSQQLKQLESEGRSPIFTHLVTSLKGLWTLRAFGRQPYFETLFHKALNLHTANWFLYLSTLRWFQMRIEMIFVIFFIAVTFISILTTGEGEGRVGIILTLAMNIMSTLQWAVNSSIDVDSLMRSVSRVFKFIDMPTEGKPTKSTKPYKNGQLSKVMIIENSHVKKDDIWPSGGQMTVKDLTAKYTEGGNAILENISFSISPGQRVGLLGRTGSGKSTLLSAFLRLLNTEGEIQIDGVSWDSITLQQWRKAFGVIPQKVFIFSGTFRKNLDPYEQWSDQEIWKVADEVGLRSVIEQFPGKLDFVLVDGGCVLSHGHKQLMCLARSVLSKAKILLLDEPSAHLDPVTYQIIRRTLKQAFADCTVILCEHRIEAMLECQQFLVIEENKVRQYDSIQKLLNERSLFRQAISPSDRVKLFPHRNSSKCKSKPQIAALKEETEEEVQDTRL

Q: For CN(C(=O)c1cccc(-n2nc(C(F)(F)F)c3c2C[C@H]2CC[C@@H]3N2C(=O)C(C)(C)C)c1)c1ccc2c(c1)OCO2 (single isomer, unassigned) [Compound 087, (4R,7S)- or (4S,7R)—N-(Benzo[d][1,3]dioxol-5-yl)-N-methyl-3-[(9-pivaloyl-3-(trifluoromethyl)-5,6,7,8-tetrahydro-4,7-epiminocyclohepta[c]pyrazol-1(4H)-yl)]benzamide], which EC50 is on record?
A: Its EC50 is under 1000 nM.

Q: With Cc1noc(C)c1S(=O)(=O)N1[C@@H]2CC[C@H]1c1c(C(F)(F)F)nn(-c3cccc(C(=O)N(C)c4ccc5c(c4)OCO5)c3)c1C2 (single isomer, unassigned) [Compound 128, (4S,7R)- or (4R,7S)—N-(Benzo[d][1,3]dioxol-5-yl)-3-(9-((3,5-dimethylisoxazol-4-yl)sulfonyl)-3-(trifluoromethyl)-5,6,7,8-tetrahydro-4,7-epiminocyclohepta[c]pyrazol-1(4H)-yl)-N-methylbenzamide] as the compound, how does the EC50 read?
A: The EC50 was under 1000 nM.

Q: For CN(C(=O)c1cccc(-n2nc(C(F)(F)F)c3c2C(Oc2ccc(CO)cc2)CCC3)c1)c1ccc2c(c1)OC(F)(F)O2 (stereo in doubt) [Compound 304, N-(2,2-Difluoro-1,3-benzodioxol-5-yl)-3-[(S)-7-[4-(hydroxymethyl)phenoxy]-3-(trifluoromethyl)-4,5,6,7-tetrahydroindazol-1-yl]-N-methyl-benzamide], which EC50 is on record?
A: The EC50 was under 1000 nM.

Q: With COC(=O)c1ccc(S(=O)(=O)N2C3CCC2c2c(C(F)(F)F)nn(-c4cccc(C(=O)N(C)c5ccc6c(c5)OCO6)c4)c2C3)cc1 (stereo not shown) [Compound 070, Methyl 4-((1-(3-(benzo[d][1,3]dioxol-5-yl(methyl)carbamoyl)phenyl)-3-(trifluoromethyl)-1,4,5,6,7,8-hexahydro-4,7-epiminocyclohepta[c]pyrazol-9-yl)sulfonyl)benzoate] as the compound, how does the EC50 read?
A: The EC50 was under 1000 nM.

Q: CN(C(=O)c1cccc(-n2nc(C(F)(F)F)c3c2C(Oc2ncc(C(=O)O)cn2)COC3)c1)c1ccc2c(c1)OCC2 (racemic) [Compound 296, 2-[[1-[3-[2,3-Dihydrobenzofuran-6-yl(methyl)carbamoyl]phenyl]-3-(trifluoromethyl)-6,7-dihydro-4H-pyrano[4,3-c]pyrazol-7-yl]oxy]pyrimidine-5-carboxylic acid] was tested. Which EC50 did it give?
A: The EC50 was under 1000 nM.

Q: Which EC50 does the source give for CN(C(=O)c1cccc(-n2nc(C(F)(F)F)c3c2C(Oc2ncc(C(=O)O)cn2)COC3)c1)c1ccc2c(c1)OCC2 (single isomer, unassigned) [Compound 298, (R) or (S)-2-[[1-[3-[2,3-dihydrobenzofuran-6-yl(methyl)carbamoyl]phenyl]-3-(trifluoromethyl)-6,7-dihydro-4H-pyrano[4,3-c]pyrazol-7-yl]oxy]pyrimidine-5-carboxylic acid] here?
A: The EC50 was under 1000 nM.

Q: COc1ncc(N(C)C(=O)c2cccc(-n3nc(C(F)(F)F)c4c3CCN(C(=O)C(C)(C)C)C4)c2)cn1 [Compound 142, 3-[5-(2,2-Dimethylpropanoyl)-3-(trifluoromethyl)-6,7-dihydro-4H-pyrazolo[4,3-c]pyridin-1-yl]-N-(2-methoxypyrimidin-5-yl)-N-methyl-benzamide] was tested. Which EC50 did it give?
A: The EC50 was over 2000 nM.

Q: CN(C(=O)c1cccc(-n2nc(C(F)(F)F)c3c2C(Oc2ccc(C(=O)O)cc2)CCC3)c1)c1ccc2c(c1)OCC2 (single isomer, unassigned) [Compound 279, (S) or (R)-4-[[1-[3-[2,3-dihydrobenzofuran-6-yl(methyl)carbamoyl]phenyl]-3-(trifluoromethyl)-4,5,6,7-tetrahydroindazol-7-yl]oxy]benzoic acid] was tested. Which EC50 did it give?
A: Its EC50 is under 1000 nM.

Q: Which EC50 does the source give for CN(C(=O)c1cccc(-n2nc(C(F)(F)F)c3c2CCN(S(=O)(=O)c2ccc(C(=O)O)cc2)C3)c1)c1ccc2c(c1)OCO2 [Compound 057, 4-[[1-[3-[1,3-Benzodioxol-5-yl(methyl)carbamoyl]phenyl]-3-(trifluoromethyl)-6,7-dihydro-4H-pyrazolo[4,3-c]pyridin-5-yl]sulfonyl]benzoic acid] here?
A: Its EC50 is 1000 to 2000 nM.

Q: With CN(C(=O)c1cccc(-n2nc(C(F)(F)F)c3c2C(Oc2ccc(C(=O)O)cc2)COC3)c1)c1ccc2c(c1)OCC2 (single isomer, unassigned) [Compound 282, (R) or (S)-4-[[1-[3-[2,3-dihydrobenzofuran-6-yl(methyl)carbamoyl]phenyl]-3-(trifluoromethyl)-6,7-dihydro-4H-pyrano[4,3-c]pyrazol-7-yl]oxy]benzoic acid] as the compound, how does the EC50 read?
A: Its EC50 is under 1000 nM.

Q: For Cc1n[nH]c2ncc(NC(=O)c3cccc(-n4nc(C(F)(F)F)c5c4CCN(C(=O)C(C)(C)C)C5)c3)cc12 [Compound 079, 3-[5-(2,2-Dimethylpropanoyl)-3-(trifluoromethyl)-6,7-dihydro-4Hpyrazolo[4,3-c]pyridin-1-yl]-N-(3-methyl-1H-pyrazolo[3,4-b]pyridin-5-yl)benzamide], which EC50 is on record?
A: The EC50 was over 2000 nM.

Q: How did the EC50 turn out when CN(C(=O)c1cccc(-n2nc(C(F)(F)F)c3c2C(Oc2cccc(C(=O)O)c2)CCC3)c1)c1ccc2c(c1)OC(F)(F)O2 (single isomer, unassigned) [Compound 190, (R) or (S)-3-[[1-[3-[(2,2-Difluoro-1,3-benzodioxol-5-yl)-methyl-carbamoyl]phenyl]-3-(trifluoromethyl)-4,5,6,7-tetrahydroindazol-7-yl]oxy]benzoic acid] was run?
A: The EC50 was under 1000 nM.

Q: How did the EC50 turn out when CN(C(=O)c1cccc(-n2nc(C(F)(F)F)c3c2CCN(C[C@H](O)CO)C3)c1)c1ccc2c(c1)OCO2 [Compound 016, N-(1,3-Benzodioxol-5-yl)-3-[5-[(2S)-2,3-dihydroxypropyl]-3-(trifluoromethyl)-6,7-dihydro-4H-pyrazolo[4,3-c]pyridin-1-yl]-N-methyl-benzamide] was run?
A: The EC50 was under 1000 nM.

Q: How did the EC50 turn out when CN(C(=O)c1cccc(-n2nc(C(F)(F)F)c3c2CN(C(=O)OC(C)(C)C)CC3)c1)c1ccc2c(c1)OCO2 [Compound 027, tert-Butyl 1-[3-[1,3-benzodioxol-5-yl(methyl)carbamoyl]phenyl]-3-(trifluoromethyl)-5,7-dihydro-4H-pyrazolo[3,4-c]pyridine-6-carboxylate] was run?
A: Its EC50 is under 1000 nM.

Q: For CN(C(=O)c1cccc(-n2nc(C(F)(F)F)c3c2CCN(Cc2ccc(C(=O)O)cc2)C3)c1)c1ccc2c(c1)OCO2 [Compound 026, 4-[[1-[3-[1,3-Benzodioxol-5-yl(methyl)carbamoyl]phenyl]-3-(trifluoromethyl)-6,7-dihydro-4H-pyrazolo[4,3-c]pyridin-5-yl]methyl]benzoic acid], which EC50 is on record?
A: Its EC50 is under 1000 nM.

Q: With CN(C(=O)c1cccc(-n2nc(C(F)(F)F)c3c2C(Oc2ccc(C(=O)O)nc2)CCC3)c1)c1ccc2c(c1)OC(F)(F)O2 (single isomer, unassigned) [Compound 185, (S) or (R)-5-[[-1-[3-[(2,2-Difluoro-1,3-benzodioxol-5-yl)-methyl-carbamoyl]phenyl]-3-(trifluoromethyl)-4,5,6,7-tetrahydroindazol-7-yl]oxy]pyridine-2-carboxylic acid] as the compound, how does the EC50 read?
A: The EC50 was under 1000 nM.

Q: With CN(C(=O)c1cccc(-n2nc(C(F)(F)F)c3c2C(Oc2ccc(C(=O)O)cc2)CCC3)c1)c1ccc2c(c1)OC(F)(F)O2 (stereo not shown) [Compound 109, 4-[[1-[3-[(2,2-Difluoro-1,3-benzodioxol-5-yl)-methyl-carbamoyl]phenyl]-3-(trifluoromethyl)-4,5,6,7-tetrahydroindazol-7-yl]oxy]benzoic acid] as the compound, how does the EC50 read?
A: The EC50 was under 1000 nM.

Q: With CN(C(=O)c1cccc(-n2nc(C(F)(F)F)c3c2CCN(C[C@@H](O)CO)C3)c1)c1ccc2c(c1)OCO2 [Compound 015, N-(1,3-Benzodioxol-5-yl)-3-[5-[(2R)-2,3-dihydroxypropyl]-3-(trifluoromethyl)-6,7-dihydro-4H-pyrazolo[4,3-c]pyridin-1-yl]-N-methyl-benzamide] as the compound, how does the EC50 read?
A: The EC50 was under 1000 nM.

Q: CN(C(=O)c1cccc(-n2nc(C(F)(F)F)c3c2CCN(S(C)(=O)=O)C3)c1)c1ccc2c(c1)OCO2 [Compound 006, N-(1,3-Benzodioxol-5-yl)-N-methyl-3-[5-methylsulfonyl-3-(trifluoromethyl)-6,7-dihydro-4H-pyrazolo[4,3-c]pyridin-1-yl]benzamide] was tested. Which EC50 did it give?
A: The EC50 was under 1000 nM.

Q: With CC(=O)N1CCc2c(c(C(F)(F)F)nn2-c2cccc(C(=O)N(C)c3ccc4c(c3)OCO4)c2)C1 [Compound 004, 3-[5-Acetyl-3-(trifluoromethyl)-6,7-dihydro-4H-pyrazolo[4,3-c]pyridin-1-yl]-N-(1,3-benzodioxol-5-yl)-N-methyl-benzamide] as the compound, how does the EC50 read?
A: The EC50 was under 1000 nM.

Q: Cc1nc2ncc(N(C)C(=O)c3cccc(-n4nc(C(F)(F)F)c5c4C(Oc4ccc(C(=O)O)cc4)COC5)c3)cc2o1 (racemic) [Compound 269, 4-[[1-[3-[Methyl-(2-methyloxazolo[4,5-b]pyridin-6-yl)carbamoyl]phenyl]-3-(trifluoromethyl)-6,7-dihydro-4H-pyrano[4,3-c]pyrazol-7-yl]oxy]benzoic acid] was tested. Which EC50 did it give?
A: The EC50 was under 1000 nM.

Q: Cc1nc2ccc(N(C)C(=O)c3cccc(-n4nc(C(F)(F)F)c5c4CCN(S(=O)(=O)c4c(C)noc4C)C5)c3)cc2o1 [Compound 137, 3-[5-(3,5-Dimethylisoxazol-4-yl)sulfonyl-3-(trifluoromethyl)-6,7-dihydro-4H-pyrazolo[4,3-c]pyridin-1-yl]-N-methyl-N-(2-methyl-1,3-benzoxazol-6-yl)benzamide] was tested. Which EC50 did it give?
A: Its EC50 is under 1000 nM.

Q: How did the EC50 turn out when Cc1nc2cc(F)c(N(C)C(=O)c3cccc(-n4nc(C(F)(F)F)c5c4CCN(C)C5)c3)cc2o1 [Compound 046, N-(5-Fluoro-2-methyl-1,3-benzoxazol-6-yl)-N-methyl-3-[5-methyl-3-(trifluoromethyl)-6,7-dihydro-4H-pyrazolo[4,3-c]pyridin-1-yl]benzamide] was run?
A: Its EC50 is under 1000 nM.

Q: For CN(C(=O)c1cccc(-n2nc(C(F)(F)F)c3c2C(Oc2ccc(C(=O)O)cc2)CCC3)c1)c1cnc(OC2CC2)nc1 (racemic) [Compound 313, 4-[[1-[3-[[2-(Cyclopropoxy)pyrimidin-5-yl]-methyl-carbamoyl]phenyl]-3-(trifluoromethyl)-4,5,6,7-tetrahydroindazol-7-yl]oxy]benzoic acid], which EC50 is on record?
A: Its EC50 is 1000 to 2000 nM.

Q: How did the EC50 turn out when CN(C(=O)c1cccc(-n2nc(C(F)(F)F)c3c2C(Oc2cncc(C(=O)O)c2)CCC3)c1)c1ccc2c(c1)OC(F)(F)O2 (single isomer, unassigned) [Compound 272, (R) or (S)-5-[[1-[3-[(2,2-Difluoro-1,3-benzodioxol-5-yl)-methyl-carbamoyl]phenyl]-3-(trifluoromethyl)-4,5,6,7-tetrahydroindazol-7-yl]oxy]pyridine-3-carboxylic acid] was run?
A: The EC50 was 1000 to 2000 nM.
